Reference: patent publication US9428504B2, “7-hydroxy-spiropipiperidine indolinyl antagonists of P2Y1 receptor” (BRISTOL-MYERS SQUIBB COMPANY, priority 2012, dated 2016)
Structures can show the parent of a compound that is named as a salt.

What was measured:
[1] = target: cloned human P2Y1 receptors (Homo sapiens (Human), UniProt P47900); assay: Binding Assay B: Scintillation Proximity Assay (SPA) for P2Y1 binding; conditions: SPA, [33P] 2MeS-ADP displacement; read-out: P2Y1 Ki (nM) using binding assay B
cloned human P2Y1 receptors, sequence (P47900 whole entry): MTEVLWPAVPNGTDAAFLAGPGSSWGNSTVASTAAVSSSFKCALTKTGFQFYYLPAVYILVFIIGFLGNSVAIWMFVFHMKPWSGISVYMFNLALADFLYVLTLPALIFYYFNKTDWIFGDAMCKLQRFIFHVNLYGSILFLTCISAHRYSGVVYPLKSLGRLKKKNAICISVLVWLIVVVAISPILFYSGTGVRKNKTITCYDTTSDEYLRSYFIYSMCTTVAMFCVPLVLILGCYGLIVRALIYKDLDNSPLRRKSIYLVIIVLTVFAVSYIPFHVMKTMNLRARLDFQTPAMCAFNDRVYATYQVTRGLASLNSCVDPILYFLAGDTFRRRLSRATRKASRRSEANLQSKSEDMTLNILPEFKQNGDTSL
How it was run: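 Membranes with ~15 fmol receptor (1.7 μg total protein) incubated with 0.3 nM [^33P]-labelled radioligand for 1 h at room temperature to completion. After centrifugation and removal of aqueous phase, bound radioactivity read by scintillation proximity; inhibition of radioligand binding measured.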

[2] = tested on: human platelet rich plasma (PRP); assay: ADP induced platelet aggregation assay; conditions: Homo sapiens, Platelet, read-out: PA IC50 (μM) @ 10 μM ADP, platelet aggregation induced by 10 μM ADP, human PRP
Description: The ability of P2Y1 antagonists covered in the present invention to inhibit platelet aggregation induced by 10 μM ADP was tested using human platelet rich plasma (PRP) as described in Platelet Protocols: Research and Clinical Laboratory Procedures (White, M. M. et al., Academic Press (1999)). Human blood was collected in 30 μM (final concentration in blood) argatroban (GSK) as the anticoagulant at a ratio of 1 ml per 9 ml of blood. The PRP was isolated by centrifugation at 170 g for 12 minutes. The platelet poor plasma (PPP) was used as the blank for optical aggregometry. Compounds of the present invention in DMSO solution was preincubated with 250 μl PRP at 37° C. for 1 minute with stirring speed of 1000 rpm. Aggregation was initiated by addition of 2.5 μl of 1 mM ADP (Chrono-log, Havertown, Pa.) for a final ADP concentration of 10 μM. Platelet aggregation was monitored using Optical Aggregometer (Chrono-log, Havertown, Pa.) and the area under the curve (AUC) at 5 minute was measured. IC50 was calculated using vehicle control as 0% inhibition.

Row | Compound | Ki [1] [nM] | IC50 [2] [µM]
1 | CC(C)(C)CN1CCC2(CC1)CN(c1ccccc1NC(=O)Nc1nc3c(s1)COCC3)c1c(O)ccc(Cl)c12 [Example 48, 1-(2-(4-Chloro-7-hydroxy-1′-neopentylspiro[indoline-3,4′-piperidine]-1-yl)phenyl)-3-(6,7-dihydro-4H-pyrano[4,3-d]thiazol-2-yl)urea, TFA] | 8 | 0.4
2 | CC(C)(C)CN1CCC2(CC1)CN(c1ccccc1NC(=O)Nc1nc3ccc(Cl)cc3s1)c1c(O)ccc(C#N)c12 [Example 83, l-(6-Chlorobenzo[d]thiazol-2-yl)-3-(2-(4-cyano-7-hydroxy-1′-neopentylspiro[indoline-3,4′-piperidine]-1-yl)phenyl) urea, trifluoroacetic acid salt] | 5.7 | 0.2
3 | CC(C)c1nc(NC(=O)Nc2ccccc2N2CC3(CCN(CC(C)(C)C)CC3)c3c(Cl)ccc(O)c32)cs1 [Example 62, 1-(2-(4-Chloro-7-hydroxy-1′-neopentylspiro[indoline-3,4′-piperidine]-1-yl)phenyl)-3-(2-isopropylthiazol-4-yl)urea] | 13 | 0.8
4 | CC(C)(C)CN1CCC2(CC1)CN(c1ccccc1NC(=O)Nc1nc3ccc(F)cc3s1)c1c(O)cc(F)c(-c3nc4cc(Cl)ccc4s3)c12 [Example 140, 1-(2-(4-(5-Chlorobenzo[d]thiazol-2-yl)-5-fluoro-7-hydroxy-1′-neopentylspiro[indoline-3,4′-piperidin]-1-yl)phenyl)-3-(6-fluorobenzo[d]thiazol-2-yl)urea] | 52.4 | 0.6
5 | CC(C)(C)CN1CCC2(CC1)CN(c1ccccc1NC(=O)Nc1ccc(OC(F)F)cc1)c1c(O)ccc(C(F)(F)F)c12 [Example 17, 1-(4-(Difluoromethoxy)phenyl)-3-(2-(7-hydroxy-1′-neopentyl-4-(trifluoromethyl)spiro[indoline-3,4′-piperidine]-1-yl)phenyl)urea] | 9 | 0.4
6 | CC(C)(C)CN1CCC2(CC1)CN(c1ccccc1NC(=O)Nc1nc3ccc(F)cc3s1)c1c(O)cc(F)c(-c3ccc(Cl)cc3)c12 [Example 165, 1-(2-(4-(4-Chlorophenyl)-5-fluoro-7-hydroxy-1′-neopentylspiro[indoline-3,4′-piperidin]-1-yl)phenyl)-3-(6-fluorobenzo[d]thiazol-2-yl)urea] | 56.2 | 0.3
7 | Cc1ccc(NC(=O)Nc2ccccc2N2CC3(CCN(CC(C)(C)C)CC3)c3c(Cl)ccc(O)c32)cc1F [Example 56, 1-(2-(4-Chloro-7-hydroxy-1′-neopentylspiro[indoline-3,4′-piperidine]-1-yl)phenyl)-3-(3-fluoro-4-methylphenyl)urea] | 6.4 | 0.5
8 | CC(C)(C)CN1CCC2(CC1)CN(c1ccccc1NC(=O)Nc1nc3c(s1)CCC3)c1c(O)ccc(Cl)c12 [Example 46, 1-(2-(4-Chloro-7-hydroxy-1′-neopentylspiro[indoline-3,4′-piperidine]-1-yl)phenyl)-3-(5,6-dihydro-4H-cyclopenta[d]thiazol-2-yl)urea, TFA] | 6.2 | 0.3
9 | CC(C)(C)CN1CCC(NC(=O)Nc2ccccc2N2CC3(CCN(CC(C)(C)C)CC3)c3c(C(F)(F)F)ccc(O)c32)CC1 [Example 24, 1-(2-(7-Hydroxy-1′-neopentyl-4-(trifluoromethyl)spiro[indoline-3,4′-piperidine]-1-yl)phenyl)-3-(1-neopentylpiperidin-4-yl)urea] | 14.8 | 0.4
10 | CC(C)(C)CN1CCC2(CC1)CN(c1ccccc1NC(=O)Nc1csc(Cl)n1)c1c(O)ccc(Cl)c12 [Example 61, 1-(2-(4-Chloro-7-hydroxy-1′-neopentylspiro[indoline-3,4′-piperidin]-1-yl)phenyl)-3-(2-chlorothiazol-4-yl)urea] | 5.8 | 0.2
